Source: article PMC11946679 (Toxics, 2025)
Where two headings read alike, the source gives them in different places.

Tested on: human peripheral blood lymphocytes
Type: cell-based
Conditions: 3 h
From the text: While screening microscope preparations to determine trends in the levels of the main CBMN assay descriptors, nonviable cells were also simultaneously counted on the same slides. Their discrimination was based on the specific morphological features typical for apoptosis or necrosis. It is well known that the biological significance of these phenomena differs deeply, and that the determination of the predominant type of cell death represents a very important issue in each experimental setting.
For each experimental group, we also calculated the ratio between the recorded number of nonviable cells and the cells in apoptosis (Table 5). According to reference, a ratio ≤ 1 means a prevalence of apoptotic events that induce cell death, while a ratio > 1 indicates the acute toxicity of the tested substance that promotes necrosis.

[1] = scored along with 4000 binucleated cells, 1× + IRI 9.0 mg/L, propolis 1.36 mg/L, galangin 0.02 mg/L
[2] = scored along with 4000 binucleated cells, 5× + IRI 9.0 mg/L, propolis 6.8 mg/L, galangin […]
[3] = scored along with 4000 binucleated cells, 10× + IRI 9.0 mg/L, propolis 13.6 mg/L, galangin 0.22 mg/L

`O=c1c(O)c(-c2ccccc2)oc2cc(O)cc(O)c12` [Galangin] was tested, and the “Ratio (nonviable cells and cells in apoptosis)” value (from here on “Ratio”) (1× + IRI 9.0 mg/L, propolis 1.36 mg/L, galangin 0.02 mg/L) was 0.5, the “Ratio” value (5× + IRI 9.0 mg/L, propolis 6.8 mg/L, galangin […]) was 0.5 and the “Ratio” value (10× + IRI 9.0 mg/L, propolis 13.6 mg/L, galangin 0.22 mg/L) was 0.6. The “Ratio” value (male, human, 0.02 mg/L) was 0.5, the “Total No. of Cells in Apoptosis” value (male, human, 0.02 mg/L) was 7 and the “Total No. of Nonviable Cells” value (male, human, 0.02 mg/L) was 14. The “Ratio” value (male, human, 0.22 mg/L) was 0.7, the “Total No. of Cells in Apoptosis” value (male, human, 0.22 mg/L) was 8 and the “Total No. of Nonviable Cells” value (male, human, 0.22 mg/L) was 12. The “Total No. of Cells in Apoptosis” value [1] was 28, the “Total No. of Nonviable Cells” value [1] was 52 and the “Total No. of Cells in Apoptosis” value [2] was 23. The “Total No. of Nonviable Cells” value [2] was 42, the “Total No. of Cells in Apoptosis” value [3] was 19 and the “Total No. of Nonviable Cells” value [3] was 34.
